US7511041B2, “Fused azole-pyrimidine derivatives” (Bayer Pharmaceuticals Corporation, priority 2002, dated 2009)

In the case of `Cl.O/C(=C\C1=Nc2c(Br)cccc2C2=NCCN12)c1cccnc1` [Example 1-74], the melting point is reported as 246 °C. For `Cc1cccc2c1N=C(/C=C(\O)c1cccnc1)N1CCN=C21.Cl` [Example 1-76], the melting point was over 290 °C. Compound `CC(=O)Nc1ccc(/C(O)=C/C2=Nc3c(C)cccc3C3=NCCN23)cn1.Cl` [Example 1-78] has a melting point of over 285 °C. In the case of `Cl.O/C(=C\C1=Nc2c(cccc2C(F)(F)F)C2=NCCN12)c1cccnc1` [Example 1-81], the melting point is reported as over 290 °C. `Cl.O/C(=C\C1=Nc2c(OCCN3CCOCC3)cccc2C2=NCCN12)c1cccnc1` [Example 1-85] showed a melting point of 261 to 262 °C. `Cl.O/C(=C\C1=Nc2c(OCC3CC3)cccc2C2=NCCN12)c1cccnc1` [Example 1-89] gave a melting point of over 300 °C. For `Cl.O/C(=C\C1=Nc2cc(N3CCOCC3)ccc2C2=NCCN12)c1cccnc1` [Example 1-95], the melting point was over 300 °C. For `CC(=O)Nc1ccc(/C(O)=C/C2=Nc3cc(N4CCOCC4)ccc3C3=NCCN23)cn1.Cl` [Example 1-97], the melting point was 246 °C. In the case of `Cl.O/C(=C\C1=Nc2cc(N3CCOCC3)ccc2C2=NCCN12)c1cncc(O)c1` [Example 1-99], the melting point is reported as 312 °C (dec.). With `Cl.O/C(=C\C1=Nc2cc(N3CCOCC3)ccc2C2=NCCN12)c1ccc2[nH]cnc2c1` [Example 1-101] the melting point was 286 °C (dec.). In the case of `O/C(=C\C1=Nc2cc(N3CCN(Cc4ccccc4)CC3)ccc2C2=NCCN12)c1cccnc1` [Example 1-103], the melting point is reported as 257 °C. With `CC(=O)Nc1ccc(/C(O)=C/C2=Nc3cc(N4CCN(C)CC4)ccc3C3=NCCN23)cn1.Cl` [Example 1-106] the melting point was 280 °C (dec.). Compound `Cl.O/C(=C\C1=Nc2cc(CN3CCOCC3)ccc2C2=NCCN12)c1cccnc1` [Example 1-112] has a melting point of 242 °C. For `CC(=O)Nc1ccc(/C(O)=C/C2=Nc3cc(CN4CCOCC4)ccc3C3=NCCN23)cn1.Cl` [Example 1-114], the melting point was 260 °C. With `O/C(=C\C1=Nc2cc(Cl)ccc2C2=NCCN12)c1cccnc1` [Example 1-117] the melting point was 280 °C (dec.). Work on `Cc1ccc2c(c1)N=C(/C=C(\O)c1cccnc1)N1CCN=C21.Cl` [Example 1-120] yielded a melting point of over 330 °C. Work on `COc1ccc2c(c1)C1=NCCN1C(/C=C(\O)c1cccnc1)=N2.Cl` [Example 1-127] yielded a melting point of over 300 °C. `O/C(=C\C1=Nc2ccc(Cl)cc2C2=NCCN12)c1cccnc1` [Example 1-130] gave a melting point of over 330 °C. Compound `Cc1ccc2c(c1)C1=NCCN1C(/C=C(\O)c1cccnc1)=N2.Cl` [Example 1-132] has a melting point of over 290 °C. In the case of `Cl.O/C(=C\C1=Nc2ccccc2C2=NCCN12)c1cccnc1` [Example 1-135], the melting point is reported as 260 °C (dec.). `Cc1ccc(/C(O)=C/C2=Nc3ccccc3C3=NCCN23)cn1.Cl` [Example 1-137] showed a melting point of over 300 °C. `Cl.O/C(=C\C1=Nc2ccccc2C2=NCCN12)c1cnccn1` [Example 1-142] showed a melting point of 217 to 222 °C. With `Cl.O/C(=C\C1=Nc2ccccc2C2=NCCN12)c1ccco1` [Example 1-144] the melting point was over 300 °C. Compound `Cl.O/C(=C\C1=Nc2ccccc2C2=NCCN12)c1cccs1` [Example 1-147] has a melting point of over 300 °C. With `Cl.O/C(=C\C1=Nc2ccccc2C2=NCCN12)c1ccno1` [Example 1-153] the melting point was 245 °C (dec.). `Cl.O/C(=C\C1=Nc2ccccc2C2=NCCN12)c1ccccn1` [Example 1-174] gave a melting point of 235 to 240 °C. With `Cl.O/C(=C\C1=Nc2ccccc2C2=NCCN12)c1ccncc1` [Example 1-176] the melting point was 235 °C (dec.). With `Cl.O/C(=C\C1=Nc2ccccc2C2=NCCN12)c1csc2ccccc12` [Example 1-181] the melting point was over 300 °C. With `COc1c(OCc2nn[nH]n2)ccc2c1N=C(/C=C(\O)c1cccnc1)N1CCN=C21.Cl` [Example 1-197] the melting point was 217 to 218 °C. In the case of `Cl.O/C(=C\C1=Nc2c(CN3CCOCC3)cccc2C2=NCCN12)c1cccnc1` [Example 1-207], the melting point is reported as 259 °C (dec.). `CC(=O)Nc1ccc(/C(O)=C/C2=Nc3c(CN4CCOCC4)cccc3C3=NCCN23)cn1.Cl` [Example 1-209] gave a melting point of over 260 °C. With `Cc1ccc(C(=O)NC2=Nc3cc(N4CCOCC4)ccc3C3=NCCN23)cn1.Cl` [Example 2-14] the melting point was 267 °C (dec.). `CC(=O)Nc1ccc(C(=O)NC2=Nc3cc(N4CCOCC4)ccc3C3=NCCN23)cc1` [Example 2-15] showed a melting point of 227 °C. For `COc1ccc2c(c1)N=C(NC(=O)c1cccnc1)N1CCN=C21.Cl` [Example 2-21], the melting point was 292 °C (dec.). For `COc1ccc2c(c1)N=C(NC(=O)c1ccc(N)nc1)N1CCN=C21.Cl` [Example 2-24], the melting point was 273 °C (dec.). Compound `COc1ccc2c(c1)N=C(NC(=O)c1ccc3[nH]cnc3c1)N1CCN=C21.Cl` [Example 2-26] has a melting point of 233 °C. For `Cc1ccc2c(c1)N=C(NC(=O)c1cccnc1)N1CCN=C21.Cl` [Example 2-28], the melting point was 315 °C. In the case of `Cc1ccc2c(c1)N=C(NC(=O)c1cccs1)N1CCN=C21.Cl` [Example 2-32], the melting point is reported as 276 °C. In the case of `Cl.O=C(NC1=Nc2cc(Cl)ccc2C2=NCCN12)c1ccc2[nH]cnc2c1` [Example 2-40], the melting point is reported as 270 °C. With `COc1ccc2c(c1OC)N=C(NC(=O)c1ccc3[nH]cnc3c1)N1CCN=C21.Cl` [Example 2-50] the melting point was 278 °C (dec.). For `COc1ccc2c(c1OC)N=C(NC(=O)c1cnc3[nH]cnc3c1)N1CCN=C21.Cl` [Example 2-52], the melting point was 210 °C (dec.). In the case of `COc1cc2c(cc1OC)C1=NCCN1C(NC(=O)c1cncc(O)c1)=N2.Cl` [Example 2-55], the melting point is reported as 260 °C (dec.). `COc1cc2c(cc1OC)C1=NCCN1C(NC(=O)c1ccc(NC(C)=O)nc1)=N2.Cl` [Example 2-58] gave a melting point of 279 °C. `COc1cc2c(cc1OC)C1=NCCN1C(NC(=O)c1ccc3[nH]cnc3c1)=N2.Cl` [Example 2-61] gave a melting point of 276 °C. `COc1ccc2c(c1Br)N=C(NC(=O)c1cccnc1)N1CCN=C21.Cl` [Example 2-66] gave a melting point of 298 °C. In the case of `COc1cc(OC)c2c(c1)C1=NCCN1C(NC(=O)c1ccc(NC(C)=O)nc1)=N2.Cl` [Example 2-71], the melting point is reported as 270 °C (dec.). For `COc1cc(OC)c2c(c1)C1=NCCN1C(NC(=O)c1ccc3[nH]cnc3c1)=N2.Cl` [Example 2-73], the melting point was 289 °C (dec.). With `COc1cc2c(c(OC)c1C)N=C(NC(=O)c1cccnc1C)N1CCN=C21.Cl` [Example 2-78] the melting point was 230 °C (dec.). With `COc1cc2c(c(OC)c1C)N=C(NC(=O)c1ccc3[nH]cnc3c1)N1CCN=C21.Cl` [Example 2-82] the melting point was 280 °C (dec.). In the case of `Cl.O=C(NC1=Nc2ccc(Cl)cc2C2=NCCN12)c1cccnc1` [Example 2-85], the melting point is reported as 309 °C. `Cl.O=C(NC1=Nc2ccc(Br)cc2C2=NCCN12)c1cccnc1` [Example 2-88] gave a melting point of 316 °C. `C=Cc1ccc2c(c1)C1=NCCN1C(NC(=O)c1cccnc1)=N2.Cl` [Example 2-96] gave a melting point of 275 to 277 °C. In the case of `Cl.O=C(NC1=Nc2c(F)cccc2C2=NCCN12)c1ccc2[nH]cnc2c1` [Example 2-102], the melting point is reported as over 300 °C. Compound `Cc1cccc2c1N=C(NC(=O)c1cccnc1)N1CCN=C21.Cl` [Example 2-108] has a melting point of over 290 °C. With `Cc1cccc2c1N=C(NC(=O)c1ccc3[nH]cnc3c1)N1CCN=C21.Cl` [Example 2-110] the melting point was over 290 °C. `Cl.O=C(NC1=Nc2c(cccc2C(F)(F)F)C2=NCCN12)c1ccc2[nH]cnc2c1` [Example 2-113] showed a melting point of 270 °C. In the case of `COc1cccc2c1N=C(NC(=O)c1cccnc1)N1CCN=C21.Cl` [Example 2-115], the melting point is reported as 237 °C (dec.). With `COc1cccc2c1N=C(NC(=O)c1cccnc1Cl)N1CCN=C21.Cl` [Example 2-119] the melting point was 266 °C (dec.). With `COc1cccc2c1N=C(NC(=O)c1ccc3[nH]cnc3c1)N1CCN=C21.Cl` [Example 2-125] the melting point was 238 °C. With `COc1cccc2c1N=C(NC(=O)c1cc3cccnc3nc1C)N1CCN=C21.Cl` [Example 2-127] the melting point was 225 °C (dec.). In the case of `COc1cccc2c1N=C(NC(=O)c1cc3cccnc3nc1C(F)(F)F)N1CCN=C21.Cl` [Example 2-129], the melting point is reported as 225 °C (dec.). With `Cc1ncccc1C(=O)NC1=Nc2ccccc2C2=NCCN12.Cl` [Example 2-132] the melting point was 277 °C (dec.). For `Cc1ccncc1C(=O)NC1=Nc2ccccc2C2=NCCN12.Cl` [Example 2-137], the melting point was 291 °C (dec.). Work on `Cl.O=C(NC1=Nc2ccccc2C2=NCCN12)c1cncc(O)c1` [Example 2-139] yielded a melting point of 296 to 297 °C. For `COc1cncc(C(=O)NC2=Nc3ccccc3C3=NCCN23)c1.Cl` [Example 2-141], the melting point was 272 °C (dec.). For `Cc1ccc(C(=O)NC2=Nc3ccccc3C3=NCCN23)cn1.Cl` [Example 2-148], the melting point was 310 °C (dec.). With `Cl.Nc1ccc(C(=O)NC2=Nc3ccccc3C3=NCCN23)cn1` [Example 2-150] the melting point was 290 °C (dec.). With `CC(=O)Nc1ccc(C(=O)NC2=Nc3ccccc3C3=NCCN23)cn1.Cl` [Example 2-152] the melting point was 312 °C (dec.). In the case of `CNc1ccc(C(=O)NC2=Nc3ccccc3C3=NCCN23)cn1.Cl` [Example 2-154], the melting point is reported as 300 °C (dec.). In the case of `Cc1nc(N)ccc1C(=O)NC1=Nc2ccccc2C2=NCCN12.Cl` [Example 2-158], the melting point is reported as 289 °C (dec.). With `Cc1cc(C(=O)NC2=Nc3ccccc3C3=NCCN23)cnc1N.Cl` [Example 2-160] the melting point was 311 °C (dec.). For `Cc1nc2ccccn2c1C(=O)NC1=Nc2ccccc2C2=NCCN12.Cl` [Example 2-171], the melting point was 328 °C (dec.). With `Cl.O=C(NC1=Nc2ccccc2C2=NCCN12)c1cnc2[nH]cnc2c1` [Example 2-173] the melting point was 287 °C (dec.). For `Cc1nc2ncccc2cc1C(=O)NC1=Nc2ccccc2C2=NCCN12.Cl` [Example 2-175], the melting point was 270 °C (dec.). In the case of `Cl.O=C(NC1=Nc2ccccc2C2=NCCN12)c1sccc1Cl` [Example 2-181], the melting point is reported as 298 °C (dec.). In the case of `Cl.O=C(NC1=Nc2ccccc2C2=NCCN12)c1ccsc1` [Example 2-184], the melting point is reported as 297 °C (dec.). Work on `CCn1nc(C)cc1C(=O)NC1=Nc2ccccc2C2=NCCN12.Cl` [Example 2-192] yielded a melting point of 271 to 272 °C. In the case of `Cl.O=C(NC1=Nc2ccccc2C2=NCCN12)c1c[nH]cn1` [Example 2-194], the melting point is reported as 309 to 310 °C.
